# Tests used:
# [1] = tested on: HIV-1 strains, for e.g., 92HT599; test: Antiviral activity: p24 estimation in MT-2 cells infected with HIV-1; assay type: cell-based; conditions: Human immunodeficiency virus 1, MT2, MT-2 cells infected with HIV-1, p24, ~96 hours
# Summary of the method: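 MT-2 cells infected with HIV-1 (e.g. 92HT599), plated at 30,000 cells/well with compound (DMSO ≤1%) and incubated ~96 h. Supernatant p24 quantified by kit; percent inhibition relative to vehicle controls.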
# Procedure for in vitro: On day 1 calculate the number of cells required for the assay and seed 3×10^4 cells in 200 μl per well. Weigh the compound and dissolve it in DMSO to get 10 mM stock which is further diluted to 3 mM and 1 mM. The drugs from these stocks were added to plate to get final concentration of 100 μM, 30 μM and 10 μM. […] Incubate for 4 days in 5% CO2 incubator at 37° C. On day 4, 100 μl of medium was removed from each well without disturbing the cells. Add 10 μl of MTT reagent and incubate for 4 hours at 5% CO2 incubator at 37° C. for formation of crystals. Add 200 μl of 0.1N acidic isopropanol to dissolve the crystals and read the plate at 590 nm.
compound,measurement,setting,value
"COCCO[C@@H]1C[C@@H](c2nc(-c3cccc(F)c3)c[nH]2)N(C(=O)[C@]23CC[C@@H](C4(C)CC4)[C@@H]2[C@H]2CC[C@@H]4[C@@]5(C)CC[C@H](OC(=O)[C@H]6C[C@@H](C(=O)O)C6(C)C)C(C)(C)[C@@H]5CC[C@@]4(C)[C@]2(C)CC3)C1 [Compound 54, (1R,3S)-3-((((1R,3aS,5aR,5bR,7aR,9S,11aR,11bR,13aR,13bR)-3a-((2S,4R)-2-(4-(3-fluorophenyl)-1H-imidazol-2-yl)-4-(2-methoxyethoxy)pyrrolidine-1-carbonyl)-5a,5b,8,8,11a-pentamethyl-1-(1-methylcyclopropyl)icosahydro-1H-cyclopenta[a]chrysen-9-yl)oxy)carbonyl)-2,2-dimethylcyclobutane-1-carboxylic acid]",inhibition at 0.1 µM,[1]; 0.1 μM,13%
same,inhibition at 1 µM,[1]; 1 μM,93%
same,"viability at 4 days, 10 μM",in vitro,49%
same,"viability at 4 days, 30 μM",in vitro,16%
same,"viability at 4 days, 100 μM",in vitro,6%

# — patent US20170129916A1, “NOVEL BETULINIC PROLINE IMIDAZOLE DERIVATIVES AS HIV INHIBITORS” (HETERO RESEARCH FOUNDATION, priority 2014, published 2017)
